Series [1] concerns Herpes simplex type 2 (HSV-2) strain MS. The experiment in a line: CPE inhibition assay, HSV-2 (MS) in Vero cells.
Series [2] deals with Herpes simplex type 1 (HSV-1) strain E-377. The experiment in a line: CPE inhibition assay, HSV-1 (E-377) in Vero cells. The following applies: for VR (virus rating): HSV-1 (E-377), Vero.
Series [3] relates to Varicella-Zoster Virus (clinical isolate DM625). As to the kind of experiment: microbe, parasite or virus in culture. The class given is cell-based. The note with it: Human alphaherpesvirus 3, Fibroblast, 120 h; read-out: MIC50.
Series [4] has as its system Herpesvirus 1 (strain 123). The experiment in a line: In vivo activity against Herpesvirus 1 in mice (intraperitoneal challenge). Details: species or system Swiss mice (CD-1). The procedure: E. Evaluation of Compounds for In Vivo Activity Against Herpesvirus 1 in Mice
(§1) Four-week-old female outbred Swiss mice (CD-1, VAF+, Charles River Labs) were housed 5 per Microisolator® cage. Feed and water were supplied ad libitum. Fifteen mice were randomly assigned to each of the following treatment groups:
(§2) Test compounds were diluted in 0.4% caboxymethylcellulose (CMC) prepared in phosphate buffered saline (PBS) at aconcentrations consistent with dosing at 0.1 ml per 10 g of body weight. Compounds were administered subcutaneously once daily for a total of 7 doses. Five mice in each treatment group served as uninfected toxicity controls. The remaining ten mice in each group were challenged intraperitoneally with an LD90 dose of the twelfth in vivo passage of Herpesvirus 1 (strain 123). Virus challenge was administered two hours after the first dose of compound was given. Mortality was monitored daily for 21 days. The mortality rates, average day of death, geometric mean time to death and virus rating were calculated for each treatment group.

Series [5] has as its system HSV-1 (E-377). The experiment in a line: Plaque reduction in Vero cells, HSV-1 (E-377). The class given is cell-based, Herpes simplex virus type 1. The note with it: Human alphaherpesvirus 1, read-out: MIC50. The procedure:
(§3) A-2. Alternate Method for Evaluation of Compounds for Activity Against Herpes Simplex Virus Types 1 and 2
(§4) Confluent Vero cell monolayers were infected with a dilution of stock virus which yielded approximately 100 plaque forming units (pfu) per well. After the adsorption period, the infected cell monolayers were treated in duplicate with serial dilutions of the test compound. Duplicate cell controls containing medium alone and virus controls containing medium and virus were run simultaneously with the test compound. After incubation for 3 to 4 days to allow for the development of visible, discrete plaques in the untreated, virus infected control cultures, the monolayers were fixed with formaldehyde and stained with crystal violet. Plaques visible to the unaided eye were counted and the mean number of plaques in the duplicate wells for each compound concentration tested and for the untreated, virus infected controls were determined. The concentration of test compound which reduced by 50% the mean number of plaques in the untreated, virus infected control cultures was then determined and expressed as the ID50.

In series [6] the test system is HSV-2. The experiment in a line: Plaque reduction in Vero cells, HSV-2. It is filed as cell-based, Herpes simplex virus type 2. The note with it: Human alphaherpesvirus 2, HSV-2, Vero, read-out: MIC50. The procedure: as §3, §4
Series [7] can be described thus: Toxicity in uninfected mice. It is filed as in vivo, Swiss mice (CD-1). The following applies: subcutaneous once daily, 7 doses. The procedure: as §1, §2
For series [8], the system named is human foreskin fibroblasts (HFF). The experiment in a line: MTT cytotoxicity assay in human foreskin fibroblasts.
The subject of series [9] is duck hepatitis B virus (DHBV). The experiment in a line: Efficacy against hepatitis B virus in vivo in ducklings. Further details: species or system Pekino ducklings. The note with it: for Serum DHBV DNA: after treatment (days 10-17). The procedure:
F. Evaluation of Compounds for Efficacy Against Hepatitis B Virus In Vivo in Ducklings
The test method is an adaptation of the method of Smee, et al., Antimicrob. Agents Chemotherap. 27 277 (1985). The serum level of duck hepatitis B virus (DHBV) DNA was monitored in 6 infected Pekino ducklings from age 6 days to age 27 days. Four ducklings were treated with 70 mg/kg/day IP, b.i.d. of the test compound as a 3 mg/ml solution in 0.9% aqueous NaCl on days 10-17. Two control ducklings were treated with 23 ml/kg/day IP, b.i.d. of 0.9% aqueous NaCl on days 10-17. The level of DHBV DNA in the duckling serum was measured daily.

The subject of series [10] is HSV-1 (123). As to the kind of experiment: Plaque reduction in Vero cells, HSV-1 (123). The class given is cell-based, Herpes simplex virus type 1. The note with it: Human alphaherpesvirus 1, read-out: MIC50. The procedure:
as §3, §4

Series [11] has as its system African green monkey kidney (Vero) cells. The experiment in a line: Drug cytotoxicity in Vero host cells (CPE assay). The note with it: Vero.
For series [12], the system named is Herpes simplex type 2 (HSV-2) strain MS. The note with it: monkey, vero cells.
Series [13] has as its system Herpes simplex type 1 (HSV-1) strain E-377. The following applies: monkey, vero cells.
The nature of series [14]: Drug cytotoxicity in Vero host cells (CPE assay). The note with it: monkey, vero cells.

≈ marks a conversion by molar mass, not a printed value. Where “and” joins values, the source holds several entries; their conditions need not be identical. Identical values can stand only once.

As to `Nc1nc(Cl)c2ncn(C3CC(CO)C3CO)c2n1` (stereo not shown) [Example 1H, 3-(2'-Amino-6'-chloro-9'H-purin-9'-yl)-1,2-bis(hydroxymethyl)cyclobutane], the “VR (virus rating)” value in series [1] is 0.6 and 0.5; in [2] it was 1.4.

In the case of `Nc1nc2c(ncn2C2CC(CO)C2CO)c(=O)[nH]1` (stereo not shown) [Example 1I, 9-(2',3'-Bis(hydroxymethyl)cyclobutyl)guanine], the “VR (virus rating)” value is 4.1 and 3.4 in [1]; 5.7 and 5.1 in series [2]. Moreover, the IC50 came to 1.4 µg/mL (≈ 5.28 µM) in series [3], 0.5 µg/mL (≈ 1.88 µM) in series [5], 1 µg/mL (≈ 3.77 µM) in series [6] and 1 µg/mL (≈ 3.77 µM) in [10]. For the same compound, the “VR (virus rating) = GMTD of experimental/GMTD of diluent treated control” value in [4] (3.2 mg/kg) was 1.3; in [4] (10 mg/kg), 1.6; in [4] (32 mg/kg), 2.5. For the same compound, the “No. Dead/No. Uninfected” value in series [7] (3.2 mg/kg) is reported as 0/5; in series [7] (10 mg/kg), 0/5; in [7] (32 mg/kg), 0/3. The “MTT Assay” value in series [8] (3.2 ug/ml) was 79 % of control; in series [8] (10 ug/ml) it was 76 % of control; in series [8] (32 ug/ml), 72 % of control; in [8] (100 ug/ml), 62 % of control. For the same compound, the “Deaths of treated ducks” value in series [9] (DHBV-infected ducklings, 70 mg/kg/day IP b.i.d. on days 10-17) was “ducks 3 and 4 died on day 18 and day 26, respectively”. Moreover, the “Serum DHBV DNA” value in series [9] (age 18 days, lines = ducks 1-4 in order) is < 1 ng/mL; in [9] (age 19 days, lines = ducks 1, 2, 4) it was < 1 ng/mL; in series [9] (age 20 days, lines = ducks 1, 2, 4), < 1 ng/mL; in series [9] (age 21 days, lines = ducks 1, 2, 4), < 1 ng/mL.

With `Nc1ncnc2c1ncn2C1CC(CO)C1CO` (stereo not shown) [Example 4C, 9-(2',3'-Bis(hydroxymethyl)cyclobutyl)adenine], the “VR (virus rating)” value in [1] is listed as 1.8. Also, the figures for the “MTC: minimum drug concentration causing any cytotoxicity” value in [11] (HSV-1 (E-377) assay) and in series [11] (HSV-2 (MS) assay) were 32 µg/mL and 100 µg/mL, respectively. Further, the “TI: therapeutic index, minimum cytotoxic drug concentration / ID50” value in series [12] is listed as 5.5.

With `Nc1nc2c(ncn2C2CC(CO)C2)c(=O)[nH]1` (stereo not shown) [Example 5G, 9-(3'-(Hydroxymethyl)cyclobutyl)guanine], the entries for the “VR (virus rating)” value in [1] and in [2] were 0.9 and 2.1, respectively. Besides, the “TI: therapeutic index, minimum cytotoxic drug concentration / ID50” value in series [13] is > 2.2; in series [12] it was > 1.0. Also, the MCC in series [14] is > 320 µg/mL. Besides, in series [11] (HSV-2 (MS) assay), the “MTC: minimum drug concentration causing any cytotoxicity” value is > 320 µg/mL. Moreover, in [2] (Human alphaherpesvirus 1, Vero, read-out: ID50: minimum drug concentration that inhibited the CPE by 50%), the IC50 was determined as 146 µg/mL (≈ 621 µM).

As for `Nc1nc2c(ncn2C2CC(CO)C2O)c(=O)[nH]1` (stereo not shown) [Example 42P, 9-(2'-hydroxy-3'-hydroxymethyl-1'-cyclobutyl)guanine], the IC50 in series [5] was found to be 1 µg/mL (≈ 3.98 µM); in series [6] it was 1 µg/mL (≈ 3.98 µM); in series [10], 3 µg/mL (≈ 11.9 µM).

The values are drawn from patent US5246931A, “Carbocyclic nucleoside analogs” (priority 1991, dated 1993).
